Assay results published in ChEMBL document CHEMBL5696441 (Nat Chem Biol, 2011).
Calls of active or inactive are those of the source. No cut-off for these calls is given here.

How the values were obtained:
[1] = molecular target: Tyrosine-protein kinase ABL2 (Homo sapiens) (UniProt P42684); test: Inhibition of ABL2 (unknown origin) assessed as remaining activity at 1 uM by Kinome scan method relative to control
[2] = molecular target: Vascular endothelial growth factor receptor 3 (Homo sapiens) (UniProt P35916); test: Inhibition of FLT4 (unknown origin) assessed as remaining activity at 1 uM by Kinome scan method relative to control
[3] = molecular target: Rhodopsin kinase GRK7 (Homo sapiens) (UniProt Q8WTQ7); test: Inhibition of GRK7 (unknown origin) assessed as remaining activity at 1 uM by Kinome scan method relative to control
[4] = molecular target: Homeodomain-interacting protein kinase 2 (Homo sapiens) (UniProt Q9H2X6); test: Inhibition of HIPK2 (unknown origin) assessed as remaining activity at 1 uM by Kinome scan method relative to control
[5] = tested on: Mast/stem cell growth factor receptor Kit (Homo sapiens), P10721 [V559D,V654A]; test: Inhibition of KIT V559D/V654A mutant (unknown origin) assessed as remaining activity at 1 uM by Kinome scan method relative to control
[6] = molecular target: Serine/threonine-protein kinase 4 (Homo sapiens) (UniProt Q13043); test: Inhibition of MST1 (unknown origin) assessed as remaining activity at 1 uM by Kinome scan method relative to control
[7] = tested on: Phosphatidylinositol 4,5-bisphosphate 3-kinase catalytic subunit alpha isoform (Homo sapiens), P42336 [E542K]; test: Inhibition of PIK3CA E542K mutant (unknown origin) assessed as remaining activity at 1 uM by Kinome scan method relative to control
[8] = molecular target: Serine/threonine-protein kinase RIO3 (Homo sapiens) (UniProt O14730); test: Inhibition of RIOK3 (unknown origin) assessed as remaining activity at 1 uM by Kinome scan method relative to control
[9] = molecular target: Activated CDC42 kinase 1 (Homo sapiens) (UniProt Q07912); test: Inhibition of human ACK1 assessed as residual activity at 1 uM using PolyEY as substrate in presence of 33P-ATP by ProQinase assay relative to control
Chain of Activated CDC42 kinase 1 (Homo sapiens) (Q07912 whole entry, looked up): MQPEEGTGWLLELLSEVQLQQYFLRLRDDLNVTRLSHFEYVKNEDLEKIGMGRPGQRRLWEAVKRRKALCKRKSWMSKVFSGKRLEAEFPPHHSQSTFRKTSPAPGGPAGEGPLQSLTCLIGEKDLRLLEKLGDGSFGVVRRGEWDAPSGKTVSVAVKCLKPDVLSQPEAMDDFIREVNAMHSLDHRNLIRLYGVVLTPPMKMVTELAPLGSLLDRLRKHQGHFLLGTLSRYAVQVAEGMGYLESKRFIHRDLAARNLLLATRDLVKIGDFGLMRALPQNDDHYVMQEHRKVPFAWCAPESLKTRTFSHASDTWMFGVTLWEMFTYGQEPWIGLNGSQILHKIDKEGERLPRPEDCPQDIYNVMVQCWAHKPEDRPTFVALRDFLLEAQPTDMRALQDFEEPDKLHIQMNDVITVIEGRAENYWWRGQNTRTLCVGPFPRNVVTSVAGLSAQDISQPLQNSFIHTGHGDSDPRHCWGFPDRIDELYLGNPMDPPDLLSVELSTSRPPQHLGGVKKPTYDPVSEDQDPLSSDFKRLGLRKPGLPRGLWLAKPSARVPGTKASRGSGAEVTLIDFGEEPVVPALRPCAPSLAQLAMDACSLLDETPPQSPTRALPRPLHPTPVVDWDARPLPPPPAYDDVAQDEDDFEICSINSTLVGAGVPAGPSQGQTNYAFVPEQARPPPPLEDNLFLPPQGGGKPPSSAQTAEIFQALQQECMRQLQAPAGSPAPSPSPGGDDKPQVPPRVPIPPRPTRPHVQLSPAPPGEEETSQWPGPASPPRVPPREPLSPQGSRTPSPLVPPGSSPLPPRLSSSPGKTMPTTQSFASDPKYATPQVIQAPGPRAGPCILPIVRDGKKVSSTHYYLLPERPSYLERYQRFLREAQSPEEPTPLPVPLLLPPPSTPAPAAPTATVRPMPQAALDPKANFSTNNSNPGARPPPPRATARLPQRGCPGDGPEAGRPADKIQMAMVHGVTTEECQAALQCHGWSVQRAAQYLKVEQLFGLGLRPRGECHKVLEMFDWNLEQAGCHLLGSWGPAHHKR

[10] = molecular target: Activin receptor type-1B (Homo sapiens) (UniProt P36896); test: Inhibition of human ACVR1B assessed as residual activity at 1 uM using RBER-CHKtide as substrate in presence of 33P-ATP by ProQinase assay relative to control
[11] = molecular target: RAC-gamma serine/threonine-protein kinase (Homo sapiens) (UniProt Q9Y243); test: Inhibition of human AKT3 assessed as residual activity at 1 uM using RBER-GSK3(14-27) as substrate in presence of 33P-ATP by ProQinase assay relative to control
Chain of RAC-gamma serine/threonine-protein kinase (Homo sapiens) (Q9Y243 whole entry): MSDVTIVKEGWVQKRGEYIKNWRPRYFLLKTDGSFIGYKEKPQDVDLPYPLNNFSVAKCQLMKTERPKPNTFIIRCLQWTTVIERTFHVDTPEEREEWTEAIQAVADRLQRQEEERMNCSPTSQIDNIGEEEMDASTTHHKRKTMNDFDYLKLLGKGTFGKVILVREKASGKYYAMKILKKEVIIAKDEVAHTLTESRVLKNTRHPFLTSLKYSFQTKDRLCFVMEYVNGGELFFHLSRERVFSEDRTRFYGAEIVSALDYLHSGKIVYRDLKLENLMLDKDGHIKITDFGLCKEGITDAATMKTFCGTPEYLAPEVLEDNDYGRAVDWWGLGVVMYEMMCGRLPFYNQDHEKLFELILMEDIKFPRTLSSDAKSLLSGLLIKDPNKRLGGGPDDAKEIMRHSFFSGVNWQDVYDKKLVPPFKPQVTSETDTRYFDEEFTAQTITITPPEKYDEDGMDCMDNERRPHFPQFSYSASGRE

[12] = molecular target: Calcium/calmodulin-dependent protein kinase type 1D (Homo sapiens) (UniProt Q8IU85); test: Inhibition of human CAMK1D assessed as residual activity at 1 uM using RBER-CHKtide as substrate in presence of 33P-ATP by ProQinase assay relative to control
Chain of Calcium/calmodulin-dependent protein kinase type 1D (Homo sapiens) (Q8IU85 whole entry, looked up, canonical isoform): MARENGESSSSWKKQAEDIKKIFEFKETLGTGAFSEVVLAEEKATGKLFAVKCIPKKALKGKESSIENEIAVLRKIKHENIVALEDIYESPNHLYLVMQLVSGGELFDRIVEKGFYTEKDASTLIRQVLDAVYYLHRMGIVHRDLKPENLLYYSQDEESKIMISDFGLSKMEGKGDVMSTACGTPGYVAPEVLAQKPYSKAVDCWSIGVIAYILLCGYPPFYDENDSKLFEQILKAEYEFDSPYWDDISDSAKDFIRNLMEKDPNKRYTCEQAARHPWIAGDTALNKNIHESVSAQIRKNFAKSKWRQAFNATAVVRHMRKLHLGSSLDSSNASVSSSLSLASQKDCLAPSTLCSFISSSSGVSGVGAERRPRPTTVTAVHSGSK

[13] = molecular target: Casein kinase I isoform epsilon (Homo sapiens) (UniProt P49674); test: Inhibition of human CK1epsilon assessed as residual activity at 1 uM using casein as substrate in presence of 33P-ATP by ProQinase assay relative to control
Chain of Casein kinase I isoform epsilon (Homo sapiens) (P49674 whole entry, looked up, the tested form may be a part, canonical isoform): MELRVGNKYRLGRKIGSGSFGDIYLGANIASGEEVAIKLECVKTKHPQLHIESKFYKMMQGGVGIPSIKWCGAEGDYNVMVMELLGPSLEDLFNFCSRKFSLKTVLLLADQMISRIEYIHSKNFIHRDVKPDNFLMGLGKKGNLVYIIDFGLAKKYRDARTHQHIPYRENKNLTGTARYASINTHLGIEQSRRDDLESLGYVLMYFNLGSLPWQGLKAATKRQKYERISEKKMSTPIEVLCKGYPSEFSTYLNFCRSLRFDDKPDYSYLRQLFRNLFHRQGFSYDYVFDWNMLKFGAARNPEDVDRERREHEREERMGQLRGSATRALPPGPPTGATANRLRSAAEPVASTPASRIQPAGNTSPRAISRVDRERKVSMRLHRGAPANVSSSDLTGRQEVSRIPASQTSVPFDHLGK

[14] = molecular target: Focal adhesion kinase 1 (Homo sapiens) (UniProt Q05397); test: Inhibition of human FAK (2 to 1052 residues) assessed as residual activity at 1 uM using polyEY as substrate in presence of 33P-ATP by ProQinase assay relative to control
Chain of Focal adhesion kinase 1 (Homo sapiens) (Q05397 2-1052 limits assumed): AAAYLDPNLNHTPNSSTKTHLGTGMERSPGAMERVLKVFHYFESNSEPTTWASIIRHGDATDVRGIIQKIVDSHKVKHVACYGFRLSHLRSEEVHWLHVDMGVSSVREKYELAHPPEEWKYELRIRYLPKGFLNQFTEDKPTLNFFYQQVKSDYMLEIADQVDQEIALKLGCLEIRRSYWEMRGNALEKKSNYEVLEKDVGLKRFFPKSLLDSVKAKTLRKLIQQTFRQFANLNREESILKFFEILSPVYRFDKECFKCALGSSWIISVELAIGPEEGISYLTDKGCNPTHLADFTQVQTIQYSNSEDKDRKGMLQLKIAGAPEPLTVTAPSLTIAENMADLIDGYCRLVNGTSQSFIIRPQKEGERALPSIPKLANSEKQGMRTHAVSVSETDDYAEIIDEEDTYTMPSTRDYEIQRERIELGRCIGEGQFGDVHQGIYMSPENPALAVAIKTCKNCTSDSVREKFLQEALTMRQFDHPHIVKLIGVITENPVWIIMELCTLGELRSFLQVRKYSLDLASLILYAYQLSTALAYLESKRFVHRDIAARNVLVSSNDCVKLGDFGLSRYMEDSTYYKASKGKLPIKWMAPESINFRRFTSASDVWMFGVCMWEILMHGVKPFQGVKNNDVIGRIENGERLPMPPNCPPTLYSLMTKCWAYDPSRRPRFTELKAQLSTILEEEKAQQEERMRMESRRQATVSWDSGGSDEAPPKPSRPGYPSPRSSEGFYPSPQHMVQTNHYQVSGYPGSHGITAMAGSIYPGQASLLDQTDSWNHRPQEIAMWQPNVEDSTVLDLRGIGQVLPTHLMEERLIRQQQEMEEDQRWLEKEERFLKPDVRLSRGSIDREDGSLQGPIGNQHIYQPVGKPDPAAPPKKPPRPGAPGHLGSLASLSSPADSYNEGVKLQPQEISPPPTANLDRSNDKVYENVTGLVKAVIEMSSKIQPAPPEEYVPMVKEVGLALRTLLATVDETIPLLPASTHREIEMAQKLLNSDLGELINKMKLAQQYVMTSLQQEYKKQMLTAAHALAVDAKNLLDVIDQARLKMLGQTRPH

[15] = molecular target: Tyrosine-protein kinase Fes/Fps (Homo sapiens) (UniProt P07332); test: Inhibition of human FES assessed as residual activity at 1 uM using polyEY as substrate in presence of 33P-ATP by ProQinase assay relative to control
[16] = molecular target: Eukaryotic translation initiation factor 2-alpha kinase 1 (Homo sapiens) (UniProt Q9BQI3); test: Inhibition of human HRI assessed as residual activity at 1 uM using casein as substrate in presence of 33P-ATP by ProQinase assay relative to control
Chain of Eukaryotic translation initiation factor 2-alpha kinase 1 (Homo sapiens) (Q9BQI3 whole entry): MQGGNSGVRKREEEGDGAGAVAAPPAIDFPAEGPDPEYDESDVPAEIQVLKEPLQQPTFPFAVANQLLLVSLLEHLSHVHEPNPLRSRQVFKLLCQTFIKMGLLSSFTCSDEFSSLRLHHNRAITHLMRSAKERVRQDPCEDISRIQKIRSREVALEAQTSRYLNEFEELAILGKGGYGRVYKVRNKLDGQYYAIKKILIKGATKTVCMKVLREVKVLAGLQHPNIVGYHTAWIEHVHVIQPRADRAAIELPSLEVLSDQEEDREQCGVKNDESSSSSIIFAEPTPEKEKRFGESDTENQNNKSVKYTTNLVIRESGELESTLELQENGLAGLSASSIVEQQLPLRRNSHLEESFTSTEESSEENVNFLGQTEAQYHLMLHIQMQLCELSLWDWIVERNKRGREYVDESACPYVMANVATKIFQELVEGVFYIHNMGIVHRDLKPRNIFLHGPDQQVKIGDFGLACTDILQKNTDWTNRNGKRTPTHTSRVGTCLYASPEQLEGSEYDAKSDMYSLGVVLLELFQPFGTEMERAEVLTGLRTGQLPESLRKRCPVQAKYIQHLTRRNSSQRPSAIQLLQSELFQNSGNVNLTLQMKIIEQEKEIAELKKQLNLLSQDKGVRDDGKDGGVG

[17] = molecular target: T1, Myosin light chain kinase (Homo sapiens) (UniProt Q32MK0); test: Inhibition of human MYLK3 assessed as residual activity at 1 uM using RB-S6P as substrate in presence of 33P-ATP by ProQinase assay relative to control
T1 sequence (whole entry): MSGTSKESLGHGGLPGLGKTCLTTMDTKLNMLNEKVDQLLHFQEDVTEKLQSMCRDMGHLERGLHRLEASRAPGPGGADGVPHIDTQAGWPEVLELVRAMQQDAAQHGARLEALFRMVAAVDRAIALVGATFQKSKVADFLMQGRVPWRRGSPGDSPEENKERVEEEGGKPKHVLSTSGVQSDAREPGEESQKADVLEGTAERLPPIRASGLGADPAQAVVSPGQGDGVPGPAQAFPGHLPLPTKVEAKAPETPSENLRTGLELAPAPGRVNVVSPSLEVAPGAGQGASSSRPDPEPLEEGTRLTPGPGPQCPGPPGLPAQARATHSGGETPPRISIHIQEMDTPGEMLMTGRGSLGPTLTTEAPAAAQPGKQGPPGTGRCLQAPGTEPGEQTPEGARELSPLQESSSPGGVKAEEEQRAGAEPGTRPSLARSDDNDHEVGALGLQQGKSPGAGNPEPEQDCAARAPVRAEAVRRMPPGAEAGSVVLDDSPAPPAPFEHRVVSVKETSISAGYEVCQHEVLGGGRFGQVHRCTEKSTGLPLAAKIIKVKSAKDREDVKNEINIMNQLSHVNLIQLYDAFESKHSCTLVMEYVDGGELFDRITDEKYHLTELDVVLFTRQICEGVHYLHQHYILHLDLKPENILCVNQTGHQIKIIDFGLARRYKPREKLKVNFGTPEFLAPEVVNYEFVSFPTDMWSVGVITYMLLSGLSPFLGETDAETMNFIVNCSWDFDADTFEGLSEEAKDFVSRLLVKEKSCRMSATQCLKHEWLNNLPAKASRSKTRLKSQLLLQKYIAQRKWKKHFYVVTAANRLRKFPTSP

[18] = molecular target: Protein kinase C iota type (Homo sapiens) (UniProt P41743); test: Inhibition of human PKCiota assessed as residual activity at 1 uM using 3xChocktide-PKC(19-31) as substrate in presence of 33P-ATP by ProQinase assay relative to control
Chain of Protein kinase C iota type (Homo sapiens) (P41743 whole entry): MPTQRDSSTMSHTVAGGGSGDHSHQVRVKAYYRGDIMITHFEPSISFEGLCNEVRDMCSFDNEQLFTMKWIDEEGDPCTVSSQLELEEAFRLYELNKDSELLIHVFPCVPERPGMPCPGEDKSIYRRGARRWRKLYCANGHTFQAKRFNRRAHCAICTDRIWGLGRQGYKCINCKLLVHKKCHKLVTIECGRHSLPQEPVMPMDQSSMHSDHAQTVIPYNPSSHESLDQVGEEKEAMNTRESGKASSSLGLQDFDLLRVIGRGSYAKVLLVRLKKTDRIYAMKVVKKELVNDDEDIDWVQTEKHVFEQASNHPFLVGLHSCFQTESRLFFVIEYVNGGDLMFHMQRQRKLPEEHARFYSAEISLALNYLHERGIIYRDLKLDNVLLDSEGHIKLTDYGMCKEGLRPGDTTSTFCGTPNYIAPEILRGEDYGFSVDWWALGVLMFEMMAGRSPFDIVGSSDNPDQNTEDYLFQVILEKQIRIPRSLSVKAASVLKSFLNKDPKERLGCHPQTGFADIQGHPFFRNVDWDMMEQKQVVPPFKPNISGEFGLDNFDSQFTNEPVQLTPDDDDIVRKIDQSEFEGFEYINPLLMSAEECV

[19] = molecular target: Angiopoietin-1 receptor (Homo sapiens) (UniProt Q02763); test: Inhibition of human TIE2 assessed as residual activity at 1 uM using polyEY as substrate in presence of 33P-ATP by ProQinase assay relative to control
[20] = Anti-inflammatory activity against human derived medium respond PBMC cells assessed as inhibition in stimulated IL-1alpha cytokine release incubated for 2 hrs in the presence of LPS/SEB/aCD28 by Luminex based sandwich immunoassay; type: functional, cell-based
[21] = molecular target: MAP kinase p38 (Homo sapiens) (UniProt O15264+Q15759+Q16539+P53778); test: Inhibition of p38-MAPK in human THP-1 cells assessed as change in HSP27 phosphorylation at Ser82 level at 80 nM preincubated for 30 mins in the presence of TNFalpha stimulation for 20 mins by western blot analysis; type: cell-based

O=C1c2ccc(Nc3ccc(F)cc3F)cc2CCc2ccc(OC[C@H](O)CO)cc21 [Skepinone-L] gave an Activity [1] of 100%, an Activity [2] of 97% and an Activity [3] of 100%. For the same molecule, the Activity [4] was 100%, the Activity [5] was 100% and the Activity [6] was 100%. For the same molecule, the Activity [7] was 100%, the Activity [8] was 99% and the Activity [9] was 108%. It also gave an Activity [10] of 77%, an Activity [11] of 94% and an Activity [12] of 106%. It also gave an Activity [13] of 86%, an Activity [14] of 113% and an Activity [15] of 121%. The Activity [16] was 106%, the Activity [17] was 85% and the Activity [18] was 91%. For the same molecule, the Activity [19] was 98%, the IC50 [20] was 370 nM and the inhibition [21] was “Active”.
